Here are results for one compound from article PMC5108698 (Biopolymers, 2016).

“Also recorded” adds a separate entry of the source.

Data set [1] addresses pancreatic trypsin (Sus scrofa, UniProt P00761). Kind of data set: Trypsin inhibitory assay. In kind it is biochemical. As to conditions: recombinantly produced SFTI-1.
Data set [2] is described as follows: NMR characterization in solution. In kind it is physicochemical. As to conditions: in-cell produced SFTI-1, approximately 0.2 mM, 80 mM potassium phosphate pH 6.5, 90% H2O/10% 2H2O, 298 K.
Data set [3] deals with trypsin (trypsin-sepharose beads). The following applies: incubated with trypsin; ref [34]; cited from earlier work.
For data set [4] the following is noted: ref [10], [12]; cited from earlier work.
For data set [5], the system named is mammalian cells. The following applies: ref [13]; cited from earlier work.
The test system of data set [6] is cellular membranes. As to conditions: ref [13]; cited from earlier work.

pancreatic trypsin, sequence (P00761 9-231): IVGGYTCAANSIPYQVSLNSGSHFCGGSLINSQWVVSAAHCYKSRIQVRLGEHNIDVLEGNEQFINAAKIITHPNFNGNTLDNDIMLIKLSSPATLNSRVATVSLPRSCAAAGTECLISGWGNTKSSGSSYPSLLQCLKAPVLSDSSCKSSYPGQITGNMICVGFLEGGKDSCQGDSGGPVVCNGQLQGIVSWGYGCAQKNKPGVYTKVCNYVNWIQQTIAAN

For `CC[C@H](C)[C@@H]1NC(=O)[C@@H]2CCCN2C(=O)[C@@H]2CCCN2C(=O)[C@H]([C@@H](C)CC)NC(=O)[C@H](CO)NC(=O)[C@H](CCCCN)NC(=O)[C@H]([C@@H](C)O)NC(=O)[C@@H]2CSSC[C@H](NC1=O)C(=O)N[C@@H](Cc1ccccc1)C(=O)N1CCC[C@H]1C(=O)N[C@@H](CC(=O)O)C(=O)NCC(=O)N[C@@H](CCCNC(=N)N)C(=O)N2` [SFTI-1, sunflower trypsin inhibitor 1], in data set [1], the “inhibition of trypsin” value is reported as “actively inhibit trypsin; also recorded: fully active”. Besides, the “aggregation state in solution” value in data set [2] is on record as “monodispersed”. Also, the “equilibrium between cyclic and linear forms with trypsin” value in data set [3] was “reach equilibrium between the cyclic and the linear forms when incubated with trypsin”. Further, in data set [4], the “stability to thermal or enzymatic degradation” value was “exceptional stability to thermal or enzymatic degradation”. Besides, in data set [5], the “toxicity to mammalian cells” value is on record as “non-toxic to mammalian cells”. The “crossing of cellular membranes” value in data set [6] is listed as “able to cross cellular membranes”.
